According to patent publication US20260219274A1, “POLYOL SWEETNERS AND CARDIOVASCULAR AND THROMBOTIC EVENT RISK” (THE CLEVELAND CLINIC FOUNDATION, priority 2023, published 2026):

What was measured:
[1] = set-up: species or system mice; settings: mouse, in vivo
Procedure: FIG. 11. […] Mice were gavaged with roughly molar equivalent levels of either xylitol alone (500 mg/kg in water) or erythritol alone (400 mg/kg), or both compounds (500 mg/kg xylitol and 400 mg/kg erythritol). Time-dependent changes in levels of xylitol and erythritol were quantified using LC-MS/MS in plasma (Panel A), urine (Panel B), and feces (Panel C) for the three groups of mice. At baseline, both xylitol and erythritol are present in mouse plasma at low levels (0.5-1.0 μM). […] Reported is content of xylitol and erythritol per ug of wet feces.
Stable-isotope-dilution LC-MS/MS was developed to specifically quantify xylitol in human and mouse plasma, urine and feces (fecal pellets were dissolved in water and supernatant subjected to LC-MS/MS). Ice cold methanol (800 μL) and internal standard (^13C2-arabitol) were added to the plasma samples (20 μL) or urine (20 μL) previously diluted in MQ water, followed by vortexing and centrifuging (21,000×g; 4° C. for 15 min). The clear supernatant (800 μL) was transferred into a clean, labeled glass tubes (Borosilicate glass 12×75 mm) and dried in a speed vacuum concentrator (Speed vac plus, SC210, Thermo Sevant). Acetylation was used since xylitol is poorly ionizable in order to achieve better retention on the reverse phase column and separation from other structural isomers as well as better ionization to achieve better sensitivity. The dry residue was reconstituted in acetic anhydride (100 μL) and 4-Dimethylaminopyridine (DMAP) in pyridine (100 μl; 1 mg/mL), sealed with safety caps, vortexed and heated (45 min at 80° C.) followed with drying under nitrogen. Dried residues were dissolved in HCl in water (0.1 M; 0.5 mL) and extracted with ethylacetate (2.0 mL). Ethylacetate layer was transferred into a clean glass tube (Borosilicate glass 12×75 mm) and dried under nitrogen. The dry residue was reconstituted in ammonium formate in a mixture of methanol:water (100 μL; 50:50 v/v with 10 mM ammonium formate), tubes were vortexed and liquid was transferred to glass vials with micro-insets and caped. LC-MS/MS analysis was performed on a chromatographic system consisting of two Shimadzu LC-30 AD pumps (Nexcra X2), a CTO 20AC oven operating at 30° C., and a SIL-30 AC-MP autosampler in tandem with a triple quadruple mass spectrometer (8050 series, Shimadzu Scientific Instruments, Inc., Columbia, MD, USA). For chromatographic separation, a Kinetex C18 column (50 mm×2.1 mm; 2.6 μm) (Cat #00B-4462-AN, Phenomenex, Torrance, CA) was used. […] Accuracy and precision of the method to quantify xylitol (separated from its structural isomers arabitol and ribitol) were assessed by a standard addition method of pure synthetic standard into different plasma pools. The accuracy of xylitol measurement was determined by the method of standard additions^12 using three different plasma pools, and was 2.4-2.8%. Intra- and inter-day coefficients of variation (CVs), measured by multiple analysis of three different control samples, were 1.2-8.9% and 10.9-11.5%, respectively. Freeze/thaw stability was determined over the five cycles and it was less than 7% for xylitol. The limit of quantification (LOQ) was defined (by convention) as the level at which xylitol was measured within the matrix (plasma) with a peak having signal-to-noise-ratio of 10:1. Limit of detection (LOD) was determined to be the lowest concentration of xylitol in the sample with a signal-to-noise ratio ≥3. […]

human whole blood = assay: Whole blood in vitro thrombosis assay (collagen-coated microfluidic chip); format: cell-based
Procedure: Shear flow experiments of whole blood were performed with a Cellix Microfluidics System (Cellix, Dublin, Ireland) as previously described and outlined in additional methods.^41-43 The extent of platelet activation and adhesion to the collagen matrix was quantified using computer assisted tomographic analyses, as previously described.^40
Shear flow experiments of whole blood were performed with a Cellix Microfluidics System (Cellix, Dublin, Ireland) as previously described.^6-8 Before use, the micro channels of a Vena8 Fluoro+ biochip were coated with type 1 collagen (15 μL; 50 μg/mL) and each channel of the biochip then washed with PBS using the Mirus Nanopump. Images were taken with an HC Plan Apo 20X/0.7NA lens on a Leica DMI6000 inverted microscope equipped with an environmental chamber and a Hamamatsu ImagEM cooled CCD camera. […] Images of platelets adhering to the collagen matrix were recorded every 5 s. […] The extent of platelet activation and adhesion to the collagen matrix was quantified using computer assisted tomographic analyses as previously described.^5 Briefly, images of CD42b stained platelet thrombi were quantified using Image Pro plus software (Media Cybernetics, Rockville, Maryland, USA). The intensity threshold was chosen to select for specific staining and the integrated optical density (IOD, Area×Intensity) quantified. […]

| Compound | baseline plasma level [1] | oral absorption in mice ([1]; po) | rate of collagen-dependent platelet adhesion and thrombus formation (human whole blood; erythritol (45 μM), physiological shear conditions) | postprandial increase in urine [1] | recovery in feces [1] | rate of collagen-dependent platelet adhesion and spreading (human whole blood; xylitol, physiological shear flow) |
| --- | --- | --- | --- | --- | --- | --- |
| OC[C@@H](O)[C@@H](O)CO [erythritol] | 0.5 to 1.0 µM | rapidly absorbed | significant enhancement | – | – | – |
| OC[C@@H](O)[C@H](O)[C@@H](O)CO [xylitol] | 0.5 to 1.0 µM | – | – | Significant xylitol increases also were not observed | the majority of xylitol is recovered in feces | substantially accelerated |
